Laboratory results: US9212182B2, “Bicyclic sulfonamide compounds as sodium channel inhibitors” (AMGEN INC., priority 2013, dated 2015)

These compounds were tested against Nav 1.7 (Homo sapiens (Human), UniProt Q15858) (assay: in-vitro Nav 1.7 PX (IC50)). Conditions: not given.
Type: cell-based

Nav 1.7, sequence (Q15858 whole entry): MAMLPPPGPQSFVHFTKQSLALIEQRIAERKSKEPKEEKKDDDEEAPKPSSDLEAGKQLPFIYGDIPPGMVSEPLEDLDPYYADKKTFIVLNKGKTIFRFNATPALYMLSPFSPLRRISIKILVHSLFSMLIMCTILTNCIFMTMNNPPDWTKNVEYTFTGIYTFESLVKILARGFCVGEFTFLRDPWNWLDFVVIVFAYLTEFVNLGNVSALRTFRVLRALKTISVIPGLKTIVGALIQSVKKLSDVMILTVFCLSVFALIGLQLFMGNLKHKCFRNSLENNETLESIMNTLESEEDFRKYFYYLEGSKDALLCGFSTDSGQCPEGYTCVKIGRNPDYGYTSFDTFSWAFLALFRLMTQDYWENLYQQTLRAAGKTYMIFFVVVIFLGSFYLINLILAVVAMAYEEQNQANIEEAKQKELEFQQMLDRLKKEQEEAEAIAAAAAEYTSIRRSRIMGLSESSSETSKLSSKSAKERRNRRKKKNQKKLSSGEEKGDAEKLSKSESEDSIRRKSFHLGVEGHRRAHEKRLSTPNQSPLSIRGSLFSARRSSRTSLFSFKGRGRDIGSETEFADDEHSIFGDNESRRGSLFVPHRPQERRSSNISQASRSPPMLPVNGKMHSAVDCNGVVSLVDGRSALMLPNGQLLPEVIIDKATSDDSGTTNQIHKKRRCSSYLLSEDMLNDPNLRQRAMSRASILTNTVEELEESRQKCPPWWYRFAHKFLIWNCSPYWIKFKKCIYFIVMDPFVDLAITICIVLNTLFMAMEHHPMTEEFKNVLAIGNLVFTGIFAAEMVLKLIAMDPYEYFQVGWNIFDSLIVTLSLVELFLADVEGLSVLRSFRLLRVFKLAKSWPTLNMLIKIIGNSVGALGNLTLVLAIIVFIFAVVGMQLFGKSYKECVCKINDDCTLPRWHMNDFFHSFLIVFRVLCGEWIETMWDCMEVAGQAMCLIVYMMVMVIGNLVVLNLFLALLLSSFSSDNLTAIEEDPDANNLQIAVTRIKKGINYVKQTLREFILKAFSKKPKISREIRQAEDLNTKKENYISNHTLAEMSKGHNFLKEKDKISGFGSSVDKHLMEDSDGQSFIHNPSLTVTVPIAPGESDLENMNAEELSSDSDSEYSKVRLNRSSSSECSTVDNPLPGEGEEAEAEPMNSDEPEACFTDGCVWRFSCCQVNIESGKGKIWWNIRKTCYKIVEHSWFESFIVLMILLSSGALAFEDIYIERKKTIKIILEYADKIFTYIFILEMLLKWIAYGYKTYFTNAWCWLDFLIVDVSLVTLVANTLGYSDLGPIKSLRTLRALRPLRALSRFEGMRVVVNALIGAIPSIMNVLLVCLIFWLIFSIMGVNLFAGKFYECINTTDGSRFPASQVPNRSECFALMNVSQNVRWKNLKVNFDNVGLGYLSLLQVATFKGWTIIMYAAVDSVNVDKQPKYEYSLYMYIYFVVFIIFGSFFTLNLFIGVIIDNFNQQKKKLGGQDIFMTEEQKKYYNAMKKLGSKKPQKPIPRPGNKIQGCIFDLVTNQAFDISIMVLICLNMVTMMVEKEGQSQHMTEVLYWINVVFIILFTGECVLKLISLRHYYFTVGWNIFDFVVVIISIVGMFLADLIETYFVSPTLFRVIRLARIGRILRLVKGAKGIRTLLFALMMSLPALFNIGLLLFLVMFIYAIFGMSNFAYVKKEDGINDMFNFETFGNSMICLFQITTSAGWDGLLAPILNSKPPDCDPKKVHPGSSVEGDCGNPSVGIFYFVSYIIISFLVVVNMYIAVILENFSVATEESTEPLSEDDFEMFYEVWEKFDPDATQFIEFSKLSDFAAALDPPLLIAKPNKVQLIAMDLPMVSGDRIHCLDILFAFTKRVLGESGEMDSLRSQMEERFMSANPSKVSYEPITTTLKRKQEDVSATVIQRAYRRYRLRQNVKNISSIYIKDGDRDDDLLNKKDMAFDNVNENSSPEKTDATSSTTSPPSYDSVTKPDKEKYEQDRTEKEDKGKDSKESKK

Row | IC50 [nM] | Compound
1 | 7140 | COc1cc(-c2ccc(F)c(Cl)c2)ccc1-n1c(=O)ccc2cc(S(=O)(=O)Nc3ccon3)ccc21 (atropisomer, axis not shown; (M)) [Example 577, (M)-1-(3′-chloro-4′-fluoro-3-methoxy-4-biphenylyl)-N-3-isoxazolyl-2-oxo-1,2-dihydro-6-quinolinesulfonamide]
2 | 15 | COc1ccc(-c2cccc(C(F)(F)F)c2)cc1-n1c(=O)ccc2cc(S(=O)(=O)Nc3ccon3)ccc21 (atropisomer, axis not shown; (P)) [Example 381, (P)—N-3-isoxazolyl-1-(4-methoxy-3′-(trifluoromethyl)-3-biphenylyl)-2-oxo-1,2-dihydro-6-quinolinesulfonamide]

More lines, now with the values behind:

Row | Compound | IC50 [nM]
3 | COc1cc(-c2cc(F)cc(Cl)c2)c(F)cc1-n1c(=O)ccc2cc(S(=O)(=O)Nc3ccon3)ccc21 (atropisomer, axis not shown; (M)) [Example 478, (M)-1-(3′-chloro-2,5′-difluoro-5-methoxy-4-biphenylyl)-N-3-isoxazolyl-2-oxo-1,2-dihydro-6-quinolinesulfonamide] | 816
4 | COc1cc(Br)c(C)cc1-n1c(=O)ccc2cc(S(=O)(=O)Nc3ccon3)ccc21 (atropisomer, axis not shown; (P)) [Example 415, (P)-1-(4-bromo-2-methoxy-5-methylphenyl)-N-3-isoxazolyl-2-oxo-1,2-dihydro-6-quinolinesulfonamide] | 269
5 | COc1cc(C[C@@H]2CCOC2)c(F)cc1-n1c(=O)ccc2cc(S(=O)(=O)Nc3ccon3)ccc21 (atropisomer, axis not shown; (P)) [Example 1235, (P)-1-(5-fluoro-2-methoxy-4-((3R)-tetrahydro-3-furanylmethyl)phenyl)-N-3-isoxazolyl-2-oxo-1,2-dihydro-6-quinolinesulfonamide] | 2130
6 | COc1ccc(-c2cccc(C#N)c2)cc1-n1c(=O)ccc2cc(S(=O)(=O)Nc3ccon3)ccc21 [Example 493, 1-(3′-cyano-4-methoxy-3-biphenylyl)-N-3-isoxazolyl-2-oxo-1,2-dihydro-6-quinolinesulfonamide] | 418
7 | COc1cc(-c2cccc(OC(F)F)c2)c(F)cc1-n1c(=O)ccc2cc(S(=O)(=O)Nc3cccnn3)ccc21 (atropisomer, axis not shown; (P)) [Example 1172, (P)-1-(3′-(difluoromethoxy)-2-fluoro-5-methoxy-4-biphenylyl)-2-oxo-N-3-pyridazinyl-1,2-dihydro-6-quinolinesulfonamide] | 29
8 | COc1cc(C2CC2)ccc1-n1c(=O)ccc2cc(S(=O)(=O)Nc3ccon3)ccc21 (atropisomer, axis not shown; (P)) [Example 1210, (P)-1-(4-cyclopropyl-2-methoxyphenyl)-N-3-isoxazolyl-2-oxo-1,2-dihydro-6-quinolinesulfonamide] | 2370

Same assay, conditions: in-vitro Nav 1.7 PX data

Row | IC50 [nM] | Compound
9 | 5 | COc1cc(-c2cc(Cl)ccc2C)c(F)cc1-n1c(=O)ccc2cc(S(=O)(=O)Nc3ccon3)ccc21 [Example 743, 1-(5′-chloro-2-fluoro-5-methoxy-2′-methyl-4-biphenylyl)-N-3-isoxazolyl-2-oxo-1,2-dihydro-6-quinolinesulfonamide]
10 | 22 | COc1cc(-c2cccc(C(F)(F)F)c2)c(F)cc1-n1c(=O)ccc2cc(S(=O)(=O)Nc3ccon3)c(F)cc21 [Example 980, 7-fluoro-1-(2-fluoro-5-methoxy-3′-(trifluoromethyl)-4-biphenylyl)-N-3-isoxazolyl-2-oxo-1,2-dihydro-6-quinolinesulfonamide]
11 | 48 | COc1ccc(-c2cc(OC)c(-n3c(=O)ccc4cc(S(=O)(=O)Nc5ccon5)ccc43)cc2F)cc1C [Example 749, 1-(2-fluoro-4′,5-dimethoxy-3′-methyl-4-biphenylyl)-N-3-isoxazolyl-2-oxo-1,2-dihydro-6-quinolinesulfonamide]
12 | 29 | COc1cc(-c2ccc(F)c(F)c2)c(F)cc1-n1c(=O)ccc2cc(S(=O)(=O)Nc3ncc(F)cn3)ccc21 [Example 937, N-(5-fluoro-2-pyrimidinyl)-2-oxo-1-(2,3′,4′-trifluoro-5-methoxy-4-biphenylyl)-1,2-dihydro-6-quinolinesulfonamide]
13 | 53 | COc1cc(-c2ccc(F)cc2)c(F)cc1-n1c(=O)ccc2cc(S(=O)(=O)Nc3ncco3)ccc21 [Example 771, 1-(2,4′-difluoro-5-methoxy-4-biphenylyl)-N-1,3-oxazol-2-yl-2-oxo-1,2-dihydro-6-quinolinesulfonamide]
14 | 141 | COc1ccc(-c2ccccc2C(F)(F)F)cc1-n1c(=O)ccc2cc(S(=O)(=O)Nc3ccon3)ccc21 [Example 850, N-3-isoxazolyl-1-(4-methoxy-2′-(trifluoromethyl)-3-biphenylyl)-2-oxo-1,2-dihydro-6-quinolinesulfonamide]
15 | 120 | COc1cc(-c2ccc(C(F)(F)F)nc2)c(F)cc1-n1c(=O)ccc2cc(S(=O)(=O)Nc3ccon3)ccc21 [Example 761, 1-(5-fluoro-2-methoxy-4-(6-(trifluoromethyl)-3-pyridinyl)phenyl)-N-3-isoxazolyl-2-oxo-1,2-dihydro-6-quinolinesulfonamide]
16 | 15 | COc1cc(-c2ccc(OC(F)(F)F)cc2)c(F)cc1-n1c(=O)ccc2cc(S(=O)(=O)Nc3ccon3)ccc21 [Example 760, 1-(2-fluoro-5-methoxy-4′-(trifluoromethoxy)-4-biphenylyl)-N-3-isoxazolyl-2-oxo-1,2-dihydro-6-quinolinesulfonamide]

The next lines start with the compound.

Row | Compound | IC50 [nM]
17 | COc1cc(-c2cc(OC)c(-n3c(=O)ccc4cc(S(=O)(=O)Nc5cc(C)ncn5)ccc43)cc2F)ccc1F [Example 1009, 1-(2,4′-difluoro-3′,5-dimethoxy-4-biphenylyl)-N-(6-methyl-4-pyrimidinyl)-2-oxo-1,2-dihydro-6-quinolinesulfonamide] | 151
18 | COc1cc(-c2ccc(F)c(F)c2)ccc1-n1c(=O)ccc2cc(S(=O)(=O)Nc3ncco3)ccc21 [Example 894, 1-(3′,4′-difluoro-3-methoxy-4-biphenylyl)-N-1,3-oxazol-2-yl-2-oxo-1,2-dihydro-6-quinolinesulfonamide] | 83
19 | COc1cc(-c2ccc(Cl)c(C#N)c2)c(F)cc1-n1c(=O)ccc2cc(S(=O)(=O)Nc3ncccn3)ccc21 [Example 871, 1-(4′-chloro-3′-cyano-2-fluoro-5-methoxy-4-biphenylyl)-2-oxo-N-2-pyrimidinyl-1,2-dihydro-6-quinolinesulfonamide] | 44
20 | COc1cc(-c2ccc(-n3c(=O)ccc4cc(S(=O)(=O)Nc5ccon5)ccc43)c(OC)c2)ccc1C (atropisomer, axis not shown; (P)) [Example 686, (P)-1-(3,3′-dimethoxy-4′-methyl-4-biphenylyl)-N-3-isoxazolyl-2-oxo-1,2-dihydro-6-quinolinesulfonamide] | 15
21 | COc1cc(-c2cc(F)cc(Cl)c2)c(F)cc1-n1c(=O)ccc2cc(S(=O)(=O)Nc3ccsn3)ccc21 [Example 921, 1-(3′-chloro-2,5′-difluoro-5-methoxy-4-biphenylyl)-N-3-isothiazolyl-2-oxo-1,2-dihydro-6-quinolinesulfonamide] | 37
22 | COc1cc(-c2ccc(Cl)c(C)c2)c(F)cc1-n1c(=O)ccc2cc(S(=O)(=O)Nc3nncs3)ccc21 [Example 1074, 1-(4′-chloro-2-fluoro-5-methoxy-3′-methyl-4-biphenylyl)-2-oxo-N-1,3,4-thiadiazol-2-yl-1,2-dihydro-6-quinolinesulfonamide] | 3
23 | COc1cc(-c2ccc(Cl)c(C)c2)c(F)cc1-n1c(=O)ccc2cc(S(=O)(=O)Nc3ccsn3)ccc21 [Example 1073, 1-(4′-chloro-2-fluoro-5-methoxy-3′-methyl-4-biphenylyl)-N-3-isothiazolyl-2-oxo-1,2-dihydro-6-quinolinesulfonamide] | 23
24 | COc1cc(-c2ccc(Cl)cc2)ccc1-n1c(=O)ccc2cc(S(=O)(=O)Nc3cccnn3)ccc21 [Example 765, 1-(4′-chloro-3-methoxy-4-biphenylyl)-2-oxo-N-3-pyridazinyl-1,2-dihydro-6-quinolinesulfonamide] | 112
25 | COc1cc(-c2cc(Cl)cnc2OC)c(F)cc1-n1c(=O)ccc2cc(S(=O)(=O)Nc3ncc(F)cn3)ccc21 [Example 774, 1-(4-(5-chloro-2-methoxy-3-pyridinyl)-5-fluoro-2-methoxyphenyl)-N-(5-fluoro-2-pyrimidinyl)-2-oxo-1,2-dihydro-6-quinolinesulfonamide] | 48
26 | COc1cc(-c2ccc(Cl)c(C#N)c2)c(F)cc1-n1c(=O)ccc2cc(S(=O)(=O)Nc3ncco3)ccc21 [Example 890, 1-(4′-chloro-3′-cyano-2-fluoro-5-methoxy-4-biphenylyl)-N-1,3-oxazol-2-yl-2-oxo-1,2-dihydro-6-quinolinesulfonamide] | 84

Same assay, conditions: in-vitro Nav 1.7 PX data (PatchXpress)

Row | IC50 [nM] | Compound
27 | 127 | O=c1ccc2cc(S(=O)(=O)Nc3ccon3)ccc2n1-c1ccc(-c2cc(F)cc(F)c2)cc1C1CC1 (atropisomer, axis not shown; (P)) [Example 629, (P)-1-(3-cyclopropyl-3′,5′-difluoro-4-biphenylyl)-N-3-isoxazolyl-2-oxo-1,2-dihydro-6-quinolinesulfonamide]
28 | 1430 | COc1cc(Br)ccc1-n1c(=O)ccc2cc(S(=O)(=O)Nc3cccnn3)ccc21 [Example 1050, 1-(4-bromo-2-methoxyphenyl)-2-oxo-N-3-pyridazinyl-1,2-dihydro-6-quinolinesulfonamide]

Same assay, conditions: in-vitro Nav 1.7 PX data, Table 4

Row | IC50 [nM] | Compound
29 | 42 | COc1cc(-c2cnc(OC)c(Cl)c2)c(F)cc1-n1c(=O)ccc2cc(S(=O)(=O)Nc3ccnc(C)n3)ccc21 (atropisomer, axis not shown; (P)) [Example 1160, (P)-1-(4-(5-chloro-6-methoxy-3-pyridinyl)-5-fluoro-2-methoxyphenyl)-N-(2-methyl-4-pyrimidinyl)-2-oxo-1,2-dihydro-6-quinolinesulfonamide]

Same assay, conditions: in-vitro PatchXpress (PX)

Row | IC50 [nM] | Compound
30 | 3 | COc1cc(-c2ccc(Cl)c(C)c2)c(Cl)cc1-n1c(=O)ccc2cc(S(=O)(=O)Nc3ccncn3)ccc21 (atropisomer, axis not shown; (P)) [Example 367, (P)-1-(2,4′-dichloro-5-methoxy-3′-methyl-4-biphenylyl)-2-oxo-N-4-pyrimidinyl-1,2-dihydro-6-quinolinesulfonamide]
